PubChem BioAssay (NCI)
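Following 48 hours of exposure in 96-well plates, responses at five concentrations were used to interpolate endpoints linearly. Here, GI50 denotes the concentration required for 50% inhibition of growth. At the TGI there is no net growth.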

Columns and labels:
Test in all cases: inhibition of tumour cell growth, NCI panel, 48 h
[1] = test system: NCI-H460 lung
[2] = test system: ACHN renal
[3] = test system: A498 renal
[4] = test system: K-562 leukemia
[5] = test system: TK-10 renal
[6] = test system: U251 CNS
[7] = test system: UACC-62 melanoma
[8] = test system: SR leukemia
[9] = test system: DU-145 prostate
[10] = test system: MDA-MB-231 breast

COc1cccc(C2N3CCCCC3[C@@H]3c4[nH]c5ccccc5c4CCN23)c1OC (stereo partly specified)
TGI [1]: 36.3 µM
TGI [2]: 28.6 µM
TGI [3]: 23.8 µM
TGI [4]: 30.1 µM
TGI [5]: 33.4 µM
TGI [6]: 30.9 µM
TGI [7]: 24 µM

CCN(CC)CCn1nc2c3c(cccc3c1=O)-c1ccccc1-2
GI50 [1]: 1.49 µM
TGI [1]: > 50 µM
GI50 [3]: 2.98 µM
TGI [3]: 9.95 µM
GI50 [8]: 0.896 µM
TGI [8]: 8.98 µM
GI50 [4]: 2.03 µM
TGI [4]: > 50 µM
GI50 [5]: 2.09 µM
TGI [5]: 34.4 µM
GI50 [6]: 2.18 µM
TGI [6]: 24.7 µM
GI50 [7]: 1.98 µM
TGI [7]: 7.81 µM
GI50 [9]: 2.11 µM
TGI [9]: > 50 µM
GI50 [10]: 4.92 µM
TGI [10]: 19.4 µM

N#CC(N)(C(=O)C(=O)NCCCNC(=O)C(=O)C(N)(C#N)c1ccc(Cl)cc1)c1ccc(Cl)cc1 (stereo unspecified)
TGI [1]: > 100 µM
TGI [2]: > 100 µM
TGI [3]: > 100 µM
TGI [8]: > 100 µM
TGI [4]: > 100 µM
TGI [5]: > 100 µM
TGI [6]: > 100 µM
TGI [7]: > 100 µM

CCN(CC)Cc1cc(Nc2c3ccc(Cl)cc3nc3c(C)cccc23)ccc1O
GI50 [1]: 1.16 µM
TGI [1]: 2.7 µM
GI50 [2]: 1.04 µM
TGI [2]: 2.24 µM
GI50 [3]: 1.05 µM
TGI [3]: 3 µM
GI50 [4]: 1.16 µM
TGI [4]: 5.48 µM
GI50 [5]: 2.69 µM
TGI [5]: 5.59 µM
GI50 [6]: 1.46 µM
TGI [6]: 2.84 µM
GI50 [7]: 1.96 µM
TGI [7]: 3.64 µM
GI50 [9]: 2.3 µM
TGI [9]: 6.99 µM
GI50 [10]: 1.83 µM
TGI [10]: 3.81 µM

O=[P+](O)c1cc2c3ccccc3ccc2c2ccccc12
TGI [1]: > 100 µM
TGI [4]: > 100 µM
TGI [5]: > 100 µM
TGI [6]: > 100 µM
TGI [7]: > 100 µM

COc1ccc(C(=O)C(CN(C)C)c2ccccc2)cc1 (stereo unspecified)
GI50 [1]: 6.13 µM
TGI [1]: 19.2 µM
GI50 [2]: 2.11 µM
TGI [2]: 4.95 µM
GI50 [3]: 8.11 µM
TGI [3]: 20.5 µM
GI50 [4]: 4.17 µM
TGI [4]: > 100 µM
GI50 [5]: 3.01 µM
TGI [5]: 7.85 µM
GI50 [6]: 4.39 µM
TGI [6]: 14.8 µM
GI50 [7]: 2.81 µM
TGI [7]: 8.22 µM
GI50 [10]: 5.41 µM
TGI [10]: 17.4 µM

Nc1ccc(C(=O)N/C(=C\c2ccc3c(c2)OCO3)c2nc3ccc4c(c3[nH]2)C(=O)c2ccccc2C4=O)cc1
TGI [1]: > 100 µM
TGI [2]: 64.9 µM
TGI [3]: 93.9 µM
TGI [4]: > 100 µM
TGI [5]: 85.7 µM
TGI [6]: > 100 µM
TGI [7]: > 100 µM

CC(C)C(NCc1c2ccccc2nc2ccccc12)C(=O)O (stereo unspecified)
TGI [1]: > 100 µM
TGI [2]: > 100 µM
TGI [8]: > 100 µM
TGI [4]: > 100 µM
TGI [5]: > 100 µM
TGI [6]: > 100 µM

Cc1ccc(/C=C2\CN(C(=O)CCN3CCC(=NO)CC3)C/C(=C\c3ccc(C)cc3)C2=O)cc1
GI50 [2]: 1.4 µM
TGI [2]: 2.83 µM
GI50 [3]: 1.48 µM
TGI [3]: 2.96 µM

COc1cc2ccc(C(=O)O)cc2cc1OC
TGI [1]: > 100 µM
TGI [2]: > 100 µM
TGI [3]: > 100 µM
TGI [4]: > 100 µM
TGI [5]: > 100 µM
TGI [6]: > 100 µM
TGI [7]: > 100 µM

CCOC(=O)CCC(NC(=O)c1ccc(Nc2nc3cc(N)cc(N)c3nc2-c2ccccc2)cc1)C(=O)OCC (stereo unspecified)
GI50 [1]: > 29.3 µM
TGI [1]: > 69.3 µM
GI50 [2]: > 35.9 µM
TGI [2]: > 68.6 µM
GI50 [4]: 42.5 µM
TGI [4]: > 100 µM
GI50 [5]: > 57.4 µM
TGI [5]: > 87.3 µM
GI50 [6]: > 44.7 µM
TGI [6]: > 66 µM
GI50 [7]: 12.6 µM
TGI [7]: > 38.2 µM
GI50 [9]: 65.8 µM
TGI [9]: > 100 µM
GI50 [10]: 16.5 µM
TGI [10]: > 53.2 µM

NC(=O)COc1ccc(Br)cc1Br
TGI [1]: > 100 µM
TGI [2]: > 100 µM
TGI [3]: > 100 µM
TGI [8]: > 100 µM
TGI [4]: > 100 µM
TGI [6]: > 100 µM

O=C(/C=C/c1ccc(OCCCOc2ccc(/C=C/C(=O)c3ccc(Cl)cc3)cc2)cc1)c1ccc(Cl)cc1
TGI [1]: > 100 µM
TGI [2]: > 100 µM
TGI [8]: > 100 µM
TGI [4]: > 100 µM
TGI [5]: > 100 µM
TGI [6]: > 100 µM
TGI [7]: > 100 µM

CC(C)=CCCC1(C)C=Cc2c(ccc3c2[nH]c2cc(O)c(C)cc23)O1 (stereo unspecified)
GI50 [1]: 4.73 µM
TGI [1]: 9.7 µM
GI50 [2]: 6.83 µM
TGI [2]: 20.2 µM
GI50 [8]: 5.55 µM
TGI [8]: 14.7 µM
GI50 [4]: 5.64 µM
TGI [4]: 15.6 µM
GI50 [5]: 16.7 µM
TGI [5]: > 25 µM
GI50 [6]: 4.53 µM
TGI [6]: 8.03 µM
GI50 [7]: 9.4 µM
TGI [7]: > 25 µM

CCc1cc2c(c3[nH]ccc13)[C@@H](C)C[C@H]2C
TGI [1]: 29.4 µM
TGI [2]: 30.9 µM
TGI [3]: 30.2 µM
TGI [4]: 45 µM
TGI [5]: 36.8 µM
TGI [6]: 31.6 µM
TGI [7]: 32 µM

COC(=O)C1=C(c2cc(OC)c(OC)c(OC)c2)OC(c2cc(OC)c(OC)c(OC)c2)C1 (stereo unspecified)
TGI [1]: > 100 µM
TGI [2]: 65.4 µM
TGI [3]: 51.4 µM
TGI [8]: 60 µM
TGI [4]: > 100 µM
TGI [5]: 63.9 µM
TGI [6]: 44.2 µM
TGI [7]: 27.5 µM

CC(C)N(C(=O)C12C3C4C5C3C1(C(=O)N(C(C)C)C(C)C)C5C42)C(C)C (stereo unspecified)
TGI [1]: > 100 µM
TGI [2]: > 100 µM
TGI [3]: > 100 µM
TGI [8]: 38.7 µM
TGI [4]: > 61.5 µM
TGI [5]: > 100 µM
TGI [6]: > 100 µM
TGI [7]: > 100 µM

CC(C)S(=O)(=O)ON1C(=O)c2ccc([N+](=O)[O-])cc2C1=O
TGI [1]: > 100 µM
TGI [2]: > 100 µM
TGI [3]: > 100 µM
TGI [8]: > 100 µM
TGI [4]: > 100 µM
TGI [5]: > 100 µM
TGI [6]: > 100 µM
TGI [7]: > 100 µM

CC(=O)[O-].CC(=O)[O-].CC(=O)[O-].CC(=O)[O-].CO.CO.CO.[Rh+2].[Rh+2].c1ccc(-c2ccccn2)nc1
GI50 [1]: > 100 µM
TGI [1]: > 100 µM
GI50 [2]: > 100 µM
TGI [2]: > 100 µM
GI50 [8]: > 100 µM
TGI [8]: > 100 µM
GI50 [5]: > 100 µM
TGI [5]: > 100 µM
GI50 [6]: > 100 µM
TGI [6]: > 100 µM
GI50 [7]: > 100 µM
TGI [7]: > 100 µM

CCOc1c(Cc2ccccc2)c(=O)n2c3ccccc3n3c(=O)n(C)c(=O)c1c23
TGI [1]: > 100 µM
TGI [2]: > 100 µM
TGI [3]: > 100 µM
TGI [8]: > 100 µM
TGI [5]: > 100 µM
TGI [6]: > 100 µM
TGI [7]: > 100 µM

O=C1/C(=C/c2ccccc2)CN(C(=O)Oc2ccccc2)C/C1=C\c1ccccc1
TGI [1]: > 100 µM
TGI [2]: > 100 µM
TGI [3]: > 100 µM
TGI [4]: 22.1 µM
TGI [5]: 42.5 µM
TGI [6]: > 100 µM
TGI [7]: > 100 µM
